In US9656984B2, “PI3K/AKT/mTOR inhibitors and pharmaceutical uses thereof” (UNIVERSITE DE RENNES 1, priority 2013, dated 2017):
Blank lines part the entries; values can stand above or below the molecule they belong to.

What was measured:
mTORC2 = mTORC2 (Homo sapiens, UniProt P42345); assay: Immunoblot of AKT serine 473 phosphorylation (target of mTORC2); type: cell-based; set-up: endogenous in cells; conditions: with increasing compound concentrations, FIG. 12A
Method: (§1) The inhibition of the phosphorylation level of AKT at serine 473, target of mTORC2, and 4EBP1 (also called Eukaryotic translation initiation factor 4E-binding protein 1) at threonines 37/46, which are targets of mTORC1, by compound 48 (compound 25 linked to biotin) was assessed by immunoblotting. Total AKT and 4EBP1 were added as loading controls.
(§2) Immunoblots Excepted for immunoprecipitation experiments in which cells were lyzed with RIPA buffer, cells were lyzed for 30 min at 4° C. in Lysis buffer (25 mM HEPES pH 7.4, 1% v/v Triton X-100, 150 mM NaCl, 2 mM EGTA supplemented with a mix of protease inhibitors). Protein concentration was determined by the bicinchoninic acid method (Pierce, Rockford, Ill., USA) according to the manufacturer's protocol. Proteins were resolved by 8, 10 or 12% SDS-PAGE and transferred to a nitrocellulose membrane (GE Healthcare, Buckinghamshire, UK). The membrane was blocked 15 min with TBST (50 mM Tris, 160 mM NaCl, 0.05% v/v Tween 20, pH 7.4) containing 5% w/v dried skimmed milk (TBS™). Primary antibody was incubated overnight at 4° C. in TBS™. The membrane was intensively washed (TBST) and then the peroxydase-labeled anti-mouse IgG1 or IgG2a (CliniSciences, Nanterre, France) was added for 45 min. Proteins were visualized with the enhanced chemiluminescence substrate kit (ECL RevelBIOt®, Ozyme, Saint Quentin en Yvelines, France).

mTOR = target: T1, mTOR (Homo sapiens, UniProt P42345); assay: Biotin pull-down with streptavidin-coated beads from CEM cells, mTOR immunoblot; type: binding; conditions: 1 μM, CEM leukemic T cells, FIG. 12B
T1 construct: endogenous in cells; host or cells: CEM leukemic T cells
Method: Compounds 25 and 48 (compound 25 linked to biotin) (1 μM) were incubated with CEM leukemic T cells for indicated times. Then cells were lyzed in RIPA buffer and biotin was immunoprecipitated using streptavidin-coated magnetic beads. Beads were washed and the presence of mTOR was analyzed in compound 48-associated complex by Immunoblotting.
CEM cells (10^7 cells) were pre-incubated for indicated times with 1 μM of compound 25 or compound 48, washed with PBS and lysed using RIPA buffer [50 mM Tris pH7.4, 1% NP-40, 0.5% Na-deoxycholate, 0.1% SDS, 150 mM NaCl, 2 mM EDTA, inhibitors of protease and phosphatase (Sigma)].

mTORC1 = mTORC1 (Homo sapiens, UniProt P42345); assay: Immunoblot of 4EBP1 threonines 37/46 phosphorylation (targets of mTORC1); type: cell-based; set-up: endogenous in cells; conditions: with increasing compound concentrations, FIG. 12A
Method: as §1, §2

Leukemic T-cell line CEM = assay: Cytotoxic effect by MTT assay, CEM; type: cell-based; conditions: 24 hours, FIGS. 2 to 5
Method: (§3) Leukemic T-cell lines Jurkat and CEM were incubated for 24 hours (see FIGS. 1, 2, 3, 4 and 5) or for 20 hours (see FIG. 6) with compounds of formula (I) and with compound A, at the indicated concentrations and cell death was assessed using the viability assay MTT, which estimates the metabolic state of the cell.
(§4) Cell viability was assessed using the 3-[4,5-dimethylthiazol-2-yl]-2,5-diphenyltetrazolium bromide (MTT) viability assay (1). In brief, cells (4×10^4 per well) were cultured for 20 h in flat-bottomed 96 well plates with various concentrations of the apoptosis inducer. Then 0.015 ml of MTT (5 mg/ml in PBS) was added to each well and incubated for 4 h at 37° C. Formazan salt precipitats were dissolved by adding 0.115 ml of isopropyl alcohol containing 1% formic acid (v/v), and the absorbance was measured at 570 nm.

[1] = tested on: PI3K/AKT activity (AKT phosphorylation); assay: PI3K/AKT/mTOR pathway inhibitory activity: level of AKT phosphorylation in CEM cells over time; type: cell-based, human; conditions: 10 μM, FIGS. 7 and 8
Method: The CEM cell was incubated with 10 μM of each mentioned compound of formula (I) for the indicated times and then cells were lysed and 100 μg of protein was loaded per line and resolved by SDS-PAGE. The levels of AKT phosphorylation (hallmark of PI3K activation) and total AKT (loading control) were analyzed by Western blot and the amount of AKT phosphorylation relative to the total amount of protein AKT was quantified by densitometric analysis, the intensity of each band was scanned and the level of AKT phosphorylation was reported to the amount of whole AKT and the percentage of phosphorylated-AKT was depicted.
as §2

[2] = tested on: Leukemic T-cell line Jurkat; assay: Cytotoxic effect by MTT assay, Jurkat; type: cell-based; conditions: 24 hours (FIG. 1) or 20 hours (FIG. 6)
Method: as §3, §4

[3] = tested on: MCF-7 (ER-positive) breast tumor cell line; assay: Cell death by MTT assay, MCF-7; type: cell-based, human; conditions: 24 hours, mean of four experiments
Method: (§5) The ER-positive breast tumor cell lines MCF-7 and T47-D and the HER2 positive breast tumor cell lines MDA-MB-453 and BT474 (also ER-positive) were incubated with the indicated concentration of each mentioned compound of formula (I) for 24 hours and then cell death was assessed using MTT assay.
(§6) For each cell line, the percentage of cell death (mean of four experiments for cell lines MCF-7 and T47-D, and two experiments for cell lines MDA-MB-453 and BT474) is given in view of the increasing concentration of each tested compound of the invention.
as §4

[4] = tested on: T47-D (ER-positive) breast tumor cell line; assay: Cell death by MTT assay, T47-D; type: cell-based, human; conditions: 24 hours, mean of four experiments
Method: as §5, §6, §4

AKT phosphorylation = assay: In cellulo IC50 of AKT phosphorylation in CEM cells (Western blot densitometry); type: cell-based; conditions: Homo sapiens, CCRF-CEM, 2 hours incubation, AKT phosphorylation vs whole AKT, read-out: In vivo IC50
Method: CEM cells were incubated for 2 hours with the indicated concentrations of each mentioned compound of formula (I). Cells were then lysed and 100 μg of protein was loaded per line in an SDS-PAGE. Bands from AKT phosphorylation and whole AKT observed by Western blot were scanned and quantified by densitometric analysis. Based on these values, an in cellulo IC50 (half maximal inhibitory concentration) was measured for each compound of formula (I).
as §2

[5] = tested on: BT474 (ER-positive/HER2-positive) breast tumor cell line; assay: Cell death by MTT assay, BT474; type: cell-based, human; conditions: 24 hours, mean of two experiments
Method: as §5, §6, §4

[6] = tested on: MDA-MB-453 (HER2 positive) breast tumor cell line; assay: Cell death by MTT assay, MDA-MB-453; type: cell-based, human; conditions: 24 hours, mean of two experiments
Method: as §5, §6, §4

- phosphorylation of AKT at serine 473 (mTORC2): decreases
- binding to mTOR (mTOR): binds to mTOR
- phosphorylation of 4EBP1 at threonines 37/46 (mTORC1): decreases
SMILES: O=C(CCCCC1SC[C@@H]2NC(=O)N[C@H]12)NCCCOc1cc(Br)c2c(c1)C=C([N+](=O)[O-])C(c1ccc(Br)cc1)O2 (stereo partly shown) [Compound 48]

SMILES: CCOc1cccc2c1OC(c1ccc(F)cc1)C([N+](=O)[O-])=C2 (stereo not shown) [A]
- percentage of cell death (cytotoxic effect) (Leukemic T-cell line CEM): lower percentage of cell death
- inhibitory activity on PI3K/AKT (level of AKT phosphorylation) [1]: very weak inhibitory activity
- percentage of cell death (cytotoxic effect) [2]: lower percentage of cell death

SMILES: O=c1cc(N2CCOCC2)oc2c(-c3ccccc3)cccc12 [LY294002, reference compound]
- percentage of cell death ([3]; MCF-7, 6.25 μM): 11.53%
- percentage of cell death ([3]; MCF-7, 12.5 μM): 11.067%
- percentage of cell death ([3]; MCF-7, 25 μM): 13.51%
- percentage of cell death ([3]; MCF-7, 50 μM): 18.89%
- percentage of cell death ([4]; 6.25 μM): 32.33%
- percentage of cell death ([4]; 12.5 μM): 40.42%
- percentage of cell death ([4]; 25 μM): 50.01%
- percentage of cell death ([4]; 50 μM): 55.69%
- IC50 (AKT phosphorylation): > 10 µM
- percentage of cell death (cytotoxic effect) (Leukemic T-cell line CEM): much lower cell death percentage
- percentage of cell death ([5]; BT474, 6.25 μM): 35.35%
- percentage of cell death ([5]; BT474, 12.5 μM): 48.7%
- percentage of cell death ([5]; BT474, 25 μM): 62.79%
- percentage of cell death ([5]; BT474, 50 μM): 77.2%
- percentage of cell death ([6]; MDA-MB-453, 0.390625 μM): 0%
- percentage of cell death ([6]; MDA-MB-453, 0.78125 μM): 0%
- percentage of cell death ([6]; MDA-MB-453, 1.5625 μM): 0%
- percentage of cell death ([6]; MDA-MB-453, 3.125 μM): 0%
- percentage of cell death ([6]; MDA-MB-453, 6.25 μM): 17.45%
- percentage of cell death ([6]; MDA-MB-453, 12.5 μM): 53.74%
- percentage of cell death ([6]; MDA-MB-453, 25 μM): 76.61%
- percentage of cell death ([6]; MDA-MB-453, 50 μM): 86.55%
